The text below walks through data of patent US8871760B2, “[1,2,4]triazolo[3,4-C][1,4]oxazines as P2X7 modulators” (Roche Palo Alto LLC, priority 2009, dated 2014).

The experiment deals with T1, human P2X7 (UniProt Q99572).
T1 sequence (Q99572 1-595): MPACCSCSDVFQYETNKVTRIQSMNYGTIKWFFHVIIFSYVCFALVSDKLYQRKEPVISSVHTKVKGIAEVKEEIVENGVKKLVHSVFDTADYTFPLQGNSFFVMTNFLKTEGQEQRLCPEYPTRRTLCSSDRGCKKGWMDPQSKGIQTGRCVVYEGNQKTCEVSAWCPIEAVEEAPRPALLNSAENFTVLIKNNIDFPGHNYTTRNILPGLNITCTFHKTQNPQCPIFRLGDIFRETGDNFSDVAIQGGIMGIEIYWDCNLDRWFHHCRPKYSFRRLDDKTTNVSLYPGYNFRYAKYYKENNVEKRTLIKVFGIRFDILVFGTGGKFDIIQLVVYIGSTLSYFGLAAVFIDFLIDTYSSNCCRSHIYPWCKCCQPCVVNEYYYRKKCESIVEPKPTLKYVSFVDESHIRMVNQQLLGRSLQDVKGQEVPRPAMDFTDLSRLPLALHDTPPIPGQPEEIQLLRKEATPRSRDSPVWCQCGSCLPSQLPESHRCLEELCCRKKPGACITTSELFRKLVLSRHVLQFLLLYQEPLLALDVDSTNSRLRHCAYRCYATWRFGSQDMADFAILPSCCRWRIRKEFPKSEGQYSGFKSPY
As to the kind of experiment: Intracellular Calcium Flux (FLIPR) Assay. Type of experiment: cell-based. Here is the method: Intracellular Calcium Flux (FLIPR) Assay
Compound and Reagent Preparation
Stock solutions of compounds were prepared from powders as a 10 mM DMSO stock solution. These solutions were stored at RT during the two week period of these experiments to prevent freeze-thaw of the DMSO stocks. The DMSO stocks were added to the appropriate assay buffer at a concentration of 10 μM, and then diluted serially to the final concentrations that were tested. No observable precipitate was formed at any time during this process. The aqueous solutions of compounds as well as ATP (Sigma A7699) and BzATP (Sigma B6396) were prepared fresh for each day of experiment.
1321N1 cells stably expressing the full length human P2X7 gene (1321N1-hP2X7) and HEK293 cells stably expressing the full length rat P2X7 gene (HEK293-rP2X7) were obtained from the Roche Cell Culture Facility. 1321N1-hP2X7 cells were grown in Dulbecco's Modified Eagle's Medium (DMEM) high glucose supplemented with 10% FBS and […] G418. HEK293-rP2X7 cells were grown in DMEM/F-12 supplemented with 10% FBS, 1 mM CaCl2, 2 mM MgCl2, 2 mM L-Glutamine and […] G418. Cells were split such that they never became >70% confluent.
Intracellular Calcium Flux (FLIPR)
On the day prior to the experiment, 1321N1-hP2X7 or HEK293-rP2X7 cells were released into suspension with calcium-free PBS+Versene and washed by centrifugation with calcium-free PBS to remove the Versene. Cells were resuspended in growth medium at a density of 2.5×10^5 cells/mL and seeded into black walled, clear bottom 96 well plates (50,000 cells/well) approximately 18 hr prior to intracellular calcium flux experiments.
On the day of the experiment, plates were washed with FLIPR buffer (calcium- and magnesium-free Hank's Balanced Salt Solution (HBSS) supplemented with 10 mM Hepes, 2.5 mM probenecid and 2 mM calcium chloride) using a BIO-TEK 96 channel plate washer and incubated with […] fluo-3 dye at 37° C. for one hr. The dye was then removed by plate washing and the cells were allowed to equilibrate for 20 min at room temperature with antagonist or vehicle (FLIPR buffer). Agonist (100 μM BzATP final concentration for hP2X7; 5 μM BzATP final concentration or rP2X7) was added online with the FLIPR and fluorescence measurements made at 1 sec intervals for 60 sec followed by 3 sec intervals for a further 4 min (5 min total). A final addition of 5 μM ionomycin was made and the maximal BzATP-evoked fluorescence normalized to the maximal ionomycin-evoked fluorescence.
Consider `O=c1[nH]ncc2c(Nc3nnc4n3[C@H](c3ccc(F)cc3)COC4)c(Br)ccc12` [Compound 48, 6-Bromo-5-[(R)-5-(4-fluoro-phenyl)-5,6-dihydro-8H-[1,2,4]triazolo[3,4-c][1,4]oxazin-3-ylamino]-2H-phthalazin-1-one], for which the pIC50 – broadly, the negative decadic logarithm of the IC50, by convention in mol/L – was 7.57.
For the compound `O=c1[nH]ncc2c(Nc3nnc4n3[C@H](c3ccc(F)cc3)COC4)cccc12` [Compound 42, 5-[(R)-5-(4-Fluoro-phenyl)-5,6-dihydro-8H-[1,2,4]triazolo[3,4-c][1,4]oxazin-3-ylamino]-2H-phthalazin-1-one], the pIC50 was 6.135.
The result for `Cc1cnn(-c2ccc(C)c(Nc3nnc4n3[C@H](c3ccc(F)cc3)COC4)c2)c1` [Compound 22, [(R)-5-(4-Fluoro-phenyl)-5,6-dihydro-8H-[1,2,4]triazolo[3,4-c][1,4]oxazin-3-yl]-[2-methyl-5-(4-methyl-pyrazol-1-yl)-phenyl]-amine] reads 7.855.
Regarding `COc1cc(Br)c(Nc2nnc3n2[C@@H](c2ccc(F)cc2)COC3)cc1OC` [Compound 12, (2-Bromo-4,5-dimethoxy-phenyl)-[(S)-5-(4-fluoro-phenyl)-5,6-dihydro-8H-[1,2,4]triazolo[3,4-c][1,4]oxazin-3-yl]-amine], the pIC50 is on record as 5.1167.
In the case of `Cc1cc(-c2ccc(C)c(Nc3nnc4n3[C@H](c3ccc(F)cc3)COC4)c2)n[nH]1` [Compound 14, [(R)-5-(4-Fluoro-phenyl)-5,6-dihydro-8H-[1,2,4]triazolo[3,4-c][1,4]oxazin-3-yl]-[2-methyl-5-(5-methyl-1H-pyrazol-3-yl)-phenyl]-amine] it was 7.62.
Turning to `C[C@H](CO)N1Cc2c(Nc3nnc4n3C(c3cccc(F)c3)COC4)ccc(Cl)c2C1=O` (stereo partly drawn) [Compound 28, 7-Chloro-4-[5-(3-fluoro-phenyl)-5,6-dihydro-8H-[1,2,4]triazolo[3,4-c][1,4]oxazin-3-ylamino]-2-((R)-2-hydroxy-1-methyl-ethyl)-2,3-dihydro-isoindol-1-one], the pIC50 came to 5.625.
On to `Cc1cc(Cl)c(OCCO)cc1Nc1nnc2n1[C@H](c1cccc(F)c1)COC2` [Compound 44, 2-{2-Chloro-5-[(R)-5-(3-fluoro-phenyl)-5,6-dihydro-8H-[1,2,4]triazolo[3,4-c][1,4]oxazin-3-ylamino]-4-methyl-phenoxy}-ethanol], for which the pIC50 worked out at 7.6.
With `Cc1ccc(-c2cc(C)n(C[C@@H](O)CO)n2)cc1Nc1nnc2n1[C@H](c1ccc(F)cc1)COC2` [Compound 32, (R)-3-(3-{3-[(R)-5-(4-Fluoro-phenyl)-5,6-dihydro-8H-[1,2,4]triazolo[3,4-c][1,4]oxazin-3-ylamino]-4-methyl-phenyl}-5-methyl-pyrazol-1-yl)-propane-1,2-diol], the pIC50 was determined as 7.5475.
Regarding `CCc1c(Nc2nnc3n2[C@H](c2ccc(F)cc2)CCC3)ccc2ncccc12` [Compound 8, (5-Ethyl-quinolin-6-yl)-[(S)-5-(4-fluoro-phenyl)-5,6,7,8-tetrahydro-[1,2,4]triazolo[4,3-a]pyridin-3-yl]-amine], the pIC50 came out at 7.693.
In the case of `COc1cc(Br)c(Nc2nnc3n2C(c2ccccc2)CCC3)cc1OC` (centres unmarked) [Compound 1, (2-Bromo-4,5-dimethoxy-phenyl)-(5-phenyl-5,6,7,8-tetrahydro-[1,2,4]triazolo[4,3-a]pyridin-3-yl)-amine], the pIC50 is 7.25.
Consider `Cc1ccc(-c2ccc(=O)[nH]n2)cc1Nc1nnc2n1[C@H](c1ccc(F)cc1)COC2` [Compound 41, 6-{3-[(R)-5-(4-Fluoro-phenyl)-5,6-dihydro-8H-[1,2,4]triazolo[3,4-c][1,4]oxazin-3-ylamino]-4-methyl-phenyl}-2H-pyridazin-3-one], for which the pIC50 is on record as 7.665.
Consider `Cc1cc(Cl)c(OCCO)cc1Nc1nnc2n1[C@H](c1ccc(F)cc1)C[S@@+]([O-])C2` [Compound 47, 2-{2-Chloro-5-[(5R,7R)-5-(4-fluoro-phenyl)-7-oxo-5,6,7,8-tetrahydro-7lambda*4*- [1,2,4]triazolo[3,4-c][1,4]thiazin-3-ylamino]-4-methyl-phenoxy}-ethanol], for which the pIC50 was 7.705.
In the case of `Cc1ccc(-c2ccnn(C)c2=O)cc1Nc1nnc2n1[C@H](c1ccc(F)cc1)CSC2` [Compound 51, 4-{3-[(R)-5-(4-Fluoro-phenyl)-5,6-dihydro-8H-[1,2,4]triazolo[3,4-c][1,4]thiazin-3-ylamino]-4-methyl-phenyl}-2-methyl-2H-pyridazin-3-one] it was 8.16; in that of `Cc1cc(Cl)c(OCCO)cc1Nc1nnc2n1C(c1cccc(F)c1)COC2` (centres unmarked) [Compound 29, 2-{2-Chloro-5-[5-(3-fluoro-phenyl)-5,6-dihydro-8H-[1,2,4]triazolo[3,4-c][1,4]oxazin-3-ylamino]-4-methyl-phenoxy}-ethanol], 7.13; in that of `Cc1cc(Cl)c(OCCO)cc1Nc1nnc2n1C(c1ccc(F)cc1)CCC2` (centres unmarked) [Compound 6, 2-{2-Chloro-5-[5-(4-fluoro-phenyl)-5,6,7,8-tetrahydro-[1,2,4]triazolo[4,3-a]pyridin-3-ylamino]-4-methyl-phenoxy}-ethanol], 6.99.
For `COc1cc(C)c(Nc2nnc3n2C(C)(c2ccc(F)cc2)COC3)cc1OC` (centres unmarked) [Compound 23, (4,5-Dimethoxy-2-methyl-phenyl)-[5-(4-fluoro-phenyl)-5-methyl-5,6-dihydro-8H-[1,2,4]triazolo[3,4-c][1,4]oxazin-3-yl]-amine], the pIC50 was found to be 6.9.
In the case of `Cc1cc(Cl)c(OCCO)cc1Nc1nnc2n1[C@H](c1ccc(F)cc1)CCC2` [Compound 15, 2-{2-Chloro-5-[(S)-5-(4-fluoro-phenyl)-5,6,7,8-tetrahydro-[1,2,4]triazolo[4,3-a]pyridin-3-ylamino]-4-methyl-phenoxy}-ethanol], the negative-log IC50 (pIC50) was 7.133.
Consider `Cc1ccc2[nH]c(=O)ccc2c1Nc1nnc2n1[C@H](c1ccc(F)cc1)COC2` [Compound 38, 5-[(R)-5-(4-Fluoro-phenyl)-5,6-dihydro-8H-[1,2,4]triazolo[3,4-c][1,4]oxazin-3-ylamino]-6-methyl-1H-quinolin-2-one], for which the pIC50 stood at 7.46.
On to `COc1cc(C)c(Nc2nnc3n2[C@H](c2ccc(F)cc2)CCC3)cc1OC` [Compound 4, (4,5-Dimethoxy-2-methyl-phenyl)-[(S)-5-(4-fluoro-phenyl)-5,6,7,8-tetrahydro-[1,2,4]triazolo[4,3-a]pyridin-3-yl]-amine], for which the pIC50 is recorded as 7.98.
In the case of `O=c1[nH]nccc1-c1ccc(Br)c(Nc2nnc3n2[C@H](c2ccc(F)cc2)COC3)c1` [Compound 49, 4-{4-Bromo-3-[(R)-5-(4-fluoro-phenyl)-5,6-dihydro-8H-[1,2,4]triazolo[3,4-c][1,4]oxazin-3-ylamino]-phenyl}-2H-pyridazin-3-one] it was 8.2.
As to `Cc1ccc(-c2cc(C)n(C[C@@H](C)O)n2)cc1Nc1nnc2n1[C@H](c1ccc(F)cc1)COC2` [Compound 31, (R)-1-(3-{3-[(R)-5-(4-Fluoro-phenyl)-5,6-dihydro-8H-[1,2,4]triazolo[3,4-c][1,4]oxazin-3-ylamino]-4-methyl-phenyl}-5-methyl-pyrazol-1-yl)-propan-2-ol], the pIC50 was 7.45.
Regarding `COc1cc(Br)c(Nc2nnc3n2C(c2ccc(F)cc2)CSC3)cc1OC` (centres unmarked) [Compound 10, (2-Bromo-4,5-dimethoxy-phenyl)-[5-(4-fluoro-phenyl)-5,6-dihydro-8H-[1,2,4]triazolo[3,4-c][1,4]thiazin-3-yl]-amine], the pIC50 is listed as 7.625.
In the case of `Cc1ccc(-c2cc(C)n(CCO)n2)cc1Nc1nnc2n1[C@H](c1ccc(F)cc1)COC2` [Compound 30, 2-(3-{3-[(R)-5-(4-Fluoro-phenyl)-5,6-dihydro-8H-[1,2,4]triazolo[3,4-c][1,4]oxazin-3-ylamino]-4-methyl-phenyl}-5-methyl-pyrazol-1-yl)-ethanol] it was 7.735.
